Measurements taken from patent US6930185B2, “Melanin-concentrating hormone antagonist” (Takeda Chemical Industries, Ltd., priority 2000, dated 2005).

SMILES | melting point
O=C(Nc1ccc2cc(CN3CCCC3)ccc2c1)c1ccc(-c2ccc(Cl)cc2)cc1 [Example 2, 4′-Chloro-N-[6-(1-pyrrolidinylmethyl)-2-naphthyl][1,1′-biphenyl]-4-carboxamide] | 214 to 217 °C
Cc1ccc(-c2ccc(C(=O)Nc3ccc4nc(CN5CCOCC5)ccc4c3)cn2)cc1 [Example 14, 6-(4-Methylphenyl)-N-[2-(4-morpholinylmethyl)-6-quinolinyl]nicotinamide] | 214 to 216 °C
CC1(C)CCCC(C)(C)N1Cc1ccc2cc(NC(=O)c3ccc(-c4ccc(Cl)cc4)nc3)ccc2n1 [Example 72, 6-(4-Chlorophenyl)-N-[2-[(2,2,6,6-tetramethyl-1-piperidinyl)methyl]-6-quinolinyl]nicotinamide] | 258 to 259 °C
O=C(Nc1ccc2nc(CN3CCCC3)ccc2c1)c1ccc(-c2ccc(Cl)cc2)nc1 [Example 44, 6-(4-Chlorophenyl)-N-[2-(1-pyrrolidinylmethyl)-6-quinolinyl]nicotinamide] | 225 to 227 °C
CN1CCN(Cc2ccc3cc(NC(=O)c4ccc(-c5ccc(Cl)cc5)cc4)ccc3n2)CC1 [Example 24, 4′-Chloro-N-[2-[(4-methyl-1-piperazinyl)methyl]-6-quinolinyl][1,1′-biphenyl]-4-carboxamide] | 215 °C (dec.)
COc1ccc(-c2ccc(C(=O)Nc3ccc4nc(CN5CCCC5)ccc4c3)cn2)cc1 [Example 42, 6-(4-Methoxyphenyl)-N-[2-(1-pyrrolidinylmethyl)-6-quinolinyl]nicotinamide] | 210 °C (dec.)
Cl.O=C(Oc1ccc2cc(CN3CCCC3)ccc2c1)N1CCC(c2ccccc2)CC1 | 213 to 215 °C
Cc1ccc(-c2ccc(C(=O)Nc3ccc4nc(CN5CCCC5)ccc4c3)cc2)cc1 [Example 61, 4′-Methyl-N-[2-(1-pyrrolidinylmethyl)-6-quinolinyl][1,1′-biphenyl]-4-carboxamide] | 192 to 193 °C
CN(C)Cc1ccc2cc(NC(=O)c3ccc(-c4ccc(Cl)cc4)cc3)ccc2n1 [Example 6, 4′-Chloro-N-[2-[(N,N-dimethylamino)methyl]-6-quinolinyl][1,1′-biphenyl]-4-carboxamide] | 219 to 221 °C
Cc1ccc(C2CCN(C(=O)Nc3ccc4nc(CN5CCCCC5)ccc4c3)CC2)cc1 [Example 64, 4-(4-Methylphenyl)-N-[2-(1-piperidinylmethyl)-6-quinolinyl]-1-piperidinecarboxamide] | 204 to 205 °C (dec.)
Cc1ccc(-c2ccc(C(=O)Nc3ccc4nc(CN5CCCCC5)ccc4c3)cn2)cc1 [Example 58, 6-(4-Methylphenyl)-N-[2-(1-piperidinylmethyl)-6-quinolinyl]nicotinamide] | 206 to 207 °C (dec.)
O=C(Nc1ccc2nc(CN3CCCCC3)ccc2c1)c1ccc(-c2ccc(F)cc2F)nc1 [Example 69, 6-(2,4-Difluorophenyl)-N-[2-(1-piperidinylmethyl)-6-quinolinyl]nicotinamide] | 182 to 183 °C
O=C(Nc1ccc2nc(CN3CCOCC3)ccc2c1)c1ccc(-c2ccc(Cl)cc2)cc1 [Example 11, 4′-Chloro-N-[2-(4-morpholinylmethyl)-6-quinolinyl][1,1′-biphenyl]-4-carboxamide] | 236 to 238 °C
O=C(Nc1ccc2nc(CN3CCOCC3)ccc2c1)c1ccc(-c2ccccc2)cc1 [Example 12, N-[2-(4-Morpholinylmethyl)-6-quinolinyl][1,1′-biphenyl]-4-carboxamide] | 214 to 215 °C
Cc1ccc(C2CCN(C(=O)Oc3ccc4cc(CN5CCCC5)ccc4c3)CC2)cc1 | 238 to 240 °C
O=C(Nc1ccc2nc(CN3CCCC3)ccc2c1)N1CCC(c2ccc(F)cc2)CC1 [Example 38, 4-(4-Fluorophenyl)-N-[2-(1-pyrrolidinylmethyl)-6-quinolinyl]-1-piperidinecarboxamide] | 206 to 207 °C
CN(C)Cc1ccc2cc(NC(=O)c3ccc(-c4ccc(F)cc4)cc3)ccc2n1 [Example 16, N-[2-[(Dimethylamino)methyl]-6-quinolinyl]-4′-fluoro[1,1′-biphenyl]-4-carboxamide] | 205 to 208 °C
O=C(Oc1ccc2cc(CN3CCCC3)ccc2c1)N1CCC(c2ccc(Cl)cc2)CC1 | 121 to 123 °C
Cc1ccc(C2CCN(C(=O)Nc3ccc4nc(CN5CCCC5)ccc4c3)CC2)cc1 [Example 41, 4-(4-Methylphenyl)-N-[2-(1-pyrrolidinylmethyl)-6-quinolinyl]-1-piperidinecarboxamide] | 214 to 216 °C
O=C(Nc1ccc2nc(CN3CCCC3)ccc2c1)c1ccc(N2CCCCC2=O)cc1 [Example 22, 4-(2-Oxo-1-piperidinyl)-N-[2-(1-pyrrolidinylmethyl)-6-quinolinyl]benzamide] | 210 to 212 °C
CN(C)Cc1ccc2cc(NC(=O)c3ccc(-c4ccccc4)cc3)ccc2n1 [Example 15, N-[2-[(Dimethylamino)methyl]-6-quinolinyl][1,1′-biphenyl]-4-carboxamide] | 191 to 194 °C
O=C(Nc1ccc2nc(CN3CCCCC3)ccc2c1)c1ccc(-c2ccc(F)cc2)cc1 [Example 9, 4′-Fluoro-N-[2-(1-piperidinylmethyl)-6-quinolinyl][1,1′-biphenyl]-4-carboxamide] | 202 to 204 °C

More lines, now with the values ahead:

melting point | SMILES
212 to 214 °C | COc1ccc(-c2ccc(C(=O)Nc3ccc4cc(CN5C(C)(C)CCCC5(C)C)ccc4c3)cc2)cc1 [Example 120, 4′-Methoxy-N-[6-[(2,2,6,6-tetramethyl-1-piperidinyl)methyl]-2-naphthyl][1,1′-biphenyl]-4-carboxamide]
246 to 247 °C | Cc1ccc(-c2ccc(C(=O)Nc3ccc4nc(CN5C(C)(C)CCCC5(C)C)ccc4c3)cn2)cc1 [Example 73, 6-(4-Methylphenyl)-N-[2-[(2,2,6,6-tetramethyl-1-piperidinyl)methyl]-6-quinolinyl]nicotinamide]
225 to 227 °C | Cc1ccc(-c2ccc(C(=O)Nc3ccc4nc(CN(C(C)C)C(C)C)ccc4c3)cc2)cc1 [Example 136, N-[2-[(Diisopropylamino)methyl]-6-quinolinyl]-4′-methyl [1-1′-biphenyl]-4-carboxamide]
235 to 237 °C | Cc1ccc(-c2ccc(C(=O)Nc3ccc4cc(CN5C(C)(C)CCCC5(C)C)ccc4c3)cc2)cc1 [Example 122, 4′-Methyl-N-[6-[(2,2,6,6-tetramethyl-1-piperidinyl)methyl]-2-naphthyl][1,1′-biphenyl]-4-carboxamide]
163 to 166 °C | CC(C)(C)OC(=O)[C@@H]1CCCN1Cc1ccc2cc(NC(=O)c3ccc(-c4ccc(Cl)cc4)cc3)ccc2n1 [Example 118, Tert-butyl (2S)-1-[[6-[[(4′-chloro[1,1′-biphenyl]-4-yl)carbonyl]amino]-2-quinolinyl]methyl]-2-pyrrolidinecarboxylate]
193 to 195 °C | O=C(Nc1ccc2cc(CN3CCCC3)ccc2c1)N1CCC(c2ccccc2)CC1 [Example 102, 4-Phenyl-N-[6-(1-pyrrolidinylmethyl)-2-naphthyl]-1-piperidinecarboxamide]
124 to 126 °C (dec.) | O=C(Nc1ccc2nc(CN3CCCCC3c3cccnc3)ccc2c1)c1ccc(-c2ccc(Cl)cc2)cc1 (stereo not drawn) [Example 116, 4′-Chloro-N-[2-[[2-(3-pyridinyl)-1-piperidinyl]-methyl]-6-quinolinyl][1,1′-biphenyl]-4-carboxamide]
164 to 166 °C | COc1ccc(C2CCN(C(=O)Nc3ccc4cc(CN5C(C)(C)CCCC5(C)C)ccc4c3)CC2)cc1 [Example 119, 4-(4-Methoxyphenyl)-N-[6-[(2,2,6,6-tetramethyl-1-piperidinyl)methyl]-2-naphthyl]-1-piperidinecarboxamide]
217 to 219 °C (dec.) | C[C@@H]1CCC[C@H](C)N1Cc1ccc2cc(NC(=O)c3ccc(-c4ccc(Cl)cc4)nc3)ccc2n1 [Example 83, 6-(4-Chlorophenyl)-N-[2-[(cis-2,6-dimethyl-1-piperidinyl)methyl]-6-quinolinyl]nicotinamide]
200 to 202 °C | Cc1ccc(C2CCN(C(=O)Nc3ccc4nc(CN5C(C)(C)CCCC5(C)C)ccc4c3)CC2)cc1 [Example 75, 4-(4-Methylphenyl)-N-[2-[(2,2,6,6-tetramethyl-1-piperidinyl)methyl]-6-quinolinyl]-1-piperidinecarboxamide]
198 to 199 °C (dec.) | Cc1ccc(-c2ccc(C(=O)Nc3ccc4nc(CN5[C@H](C)CCC[C@@H]5C)ccc4c3)cc2)cc1 [Example 81, 4′-Methyl-N-[2-[(cis-2,6-dimethyl-1-piperidinyl)methyl]-6-quinolinyl][1,1′-biphenyl]-4-carboxamide]
238 to 241 °C | CC1(C)CCCC(C)(C)N1Cc1ccc2cc(NC(=O)c3ccc(-c4ccc(F)cc4)cc3)ccc2c1 [Example 121, 4′-Fluoro-N-[6-[(2,2,6,6-tetramethyl-1-piperidinyl)methyl]-2-naphthyl][1,1′-biphenyl]-4-carboxamide]
208 to 209 °C | CC(C)N(Cc1ccc2cc(NC(=O)c3ccc(-c4ccccc4)cc3)ccc2n1)C(C)C [Example 133, N-[2-[(Diisopropylamino)methyl]-6-quinolinyl][1-1′-biphenyl]-4-carboxamide]
207 to 209 °C | CC(C)N(Cc1ccc2cc(NC(=O)c3ccc(-c4ccc(F)cc4)cc3)ccc2n1)C(C)C [Example 135, N-[2-[(Diisopropylamino)methyl]-6-quinolinyl]-4′-fluoro[1-1′-biphenyl]-4-carboxamide]
201 to 203 °C | CC(C)N(Cc1ccc2cc(NC(=O)N3CCC(c4ccc(Cl)cc4)CC3)ccc2n1)C(C)C [Example 140, 4-(4-Chlorophenyl)-N-[2-[(diisopropylamino)methyl]-6-quinolinyl]-1-piperidinecarboxamide]
203 to 204 °C | CC1(C)CCCC(C)(C)N1Cc1ccc2cc(NC(=O)N3CCC(c4ccc(Cl)cc4)CC3)ccc2n1 [Example 74, 4-(4-Chlorophenyl)-N-[2-[(2,2,6,6-tetramethyl-1-piperidinyl)methyl]-6-quinolinyl]-1-piperidinecarboxamide]
187 to 188 °C | C[C@@H]1CCC[C@H](C)N1Cc1ccc2cc(NC(=O)c3ccc(-c4ccc(F)cc4)cc3)ccc2n1 [Example 79, 4′-Fluoro-N-[2-[(cis-2,6-dimethyl-1-piperidinyl)methyl]-6-quinolinyl][1,1′-biphenyl]-4-carboxamide]
